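Where inhibition never reached the appropriate level, the endpoint shown equals the highest concentration tested. Otherwise, values were interpolated linearly from a five-concentration, 48-hour dose response in 96-well plates. Abbreviation: GI50, concentration required for 50% inhibition of growth. TGI denotes the concentration required for complete inhibition of growth.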
tested on: K-562 leukemia; test: NCI tumour cell line growth inhibition, 48 h

Compound	GI50 [µM]	TGI [µM]
CS(=O)(=O)Nc1cc(-c2ccc3ncnc(Nc4cccc(Cl)c4)c3c2)cnc1Cl	1.36	59.8
COc1ccc2c(c1OC)O/C(=C\c1ncc([N+](=O)[O-])n1C)C2=O	2.12	7.99
COc1ccc(/C=C\c2cc(OC)c(OC)c(OC)c2)cc1		> 100
COc1cc(N(C)C)c(OC)cc1C=C1C=CC=C1		> 100
C[C@H]1CC[P+](C)(c2ccccc2)C1 (stereo partly drawn)		> 100
C=C1CC[C@H]2C(C)=CC[C@H]3C(=C)C(=O)O[C@@H]3[C@@H]12		> 100
COc1cc(OC)c2c(=O)c3cccc([N+](=O)[O-])c3n(C)c2c1		> 100
COc1ccc(-c2csc(Nc3cccc(-c4csc(C)n4)c3)n2)cc1	0.137	0.507
Cc1cc(C)nc(NS(=O)(=O)c2ccc(Nc3c4ccccc4nc4c(C(=O)NCCN(C)C)cccc34)cc2)n1		17.8
CCOC1Oc2ccc(C)cc2C(=O)/C1=C\Nc1ccc(S(N)(=O)=O)cc1 (stereo not drawn)	15.2	> 50
Cc1cc(NN=C(c2ccc(O)cc2)c2ccc(O)cc2)c([N+](=O)[O-])cc1[N+](=O)[O-]	92.7	> 100
COc1ccc(-c2c(N)noc2-c2cc(OC)c3c(c2)OCCO3)cc1	< 0.01	> 100
COc1ccc(-c2cc(/C=C/C(=O)c3ccc(N)cc3)[nH]n2)cc1	1.42	11.6
CCOC(=O)c1c(NC(=O)c2ccc(Cl)cc2)sc2c(CN(C)C)c(O)ccc12	1.62	5.07
CCCCC1(C(NC(=O)c2ccccc2Cl)c2ccncc2)C(=O)N(c2ccccc2)N(c2ccccc2)C1=O (stereo not drawn)		> 100
N#Cc1cc(S(=O)(=O)Nc2nc3cc(Cl)ccc3o2)c(SCc2ccccc2)cc1Cl	14.3	27.4

Compound	GI50 [µM]	TGI [µM]
C#C[C@]1(O)CC[C@H]2[C@@H]3CC=C4c5nc(N)sc5CC[C@]4(C)[C@H]3CC[C@@]21C	2.63	74.5
C1=CC2CCC1CN2CCC1CNc2ccccc21 (stereo not drawn)		> 100
O=CN1N=C(c2cccc(Nc3ccnc4cc(Cl)ccc34)c2)CC1c1ccc(Cl)cc1 (stereo not drawn)	0.413	> 100
O=C1C(=O)C2(CC1S(=O)(=O)c1ccccc1)c1ccccc1-c1ccccc12 (stereo not drawn)		59.3
Cc1ccc(S(=O)C(C)C(Cl)c2ccccc2)cc1 (stereo not drawn)		> 100
CN1CCc2ccccc2C(C(=O)c2ccc3c(c2)OCO3)C1=O (stereo not drawn)		> 100
Cc1cc(Cl)ccc1NC(=O)C1C(=O)N(c2ccc(Cl)cc2C)C(=O)/C1=N\NC(N)=S (stereo not drawn)		57.8
COc1ccc(C2=Nn3c(nnc3-n3nc(C)cc3C)SC2)cc1	0.0351	> 100
COc1ccc(Br)c(C(=O)N2CCc3ccccc32)c1N		> 100
COc1ccc(C)cc1NC(=S)C#N		> 100
CC(=O)Oc1cc2cnc3c4cc(OC(C)=O)c(OC(C)=O)cc4ccc3c2cc1OC(C)=O	2.08	> 100
Cc1ccc2ccc(-c3ccccc3)c3c2c1C(=O)c1ccccc1C3=O		> 100
OCC(O)C(O)C(O)c1nn(-c2ccc(F)cc2)c2nc3cc(Cl)c(Cl)cc3nc12 (stereo not drawn)		43.2
CCCCCC[C@H]1C(=O)O[C@H](C)[C@H](NC(=O)c2cccc(NC=O)c2OC)C(=O)O[C@@H](C)[C@@H]1OC(=O)CCC (tested in a mixture with another compound)	4.99	33.9
COc1ccc(C2Cc3cc(OC)c(OC)c(OC)c3C2)cc1 (stereo not drawn)		> 100

tested on: EKVX NSCLC; test: NCI tumour cell line growth inhibition, 48 h

Compound	GI50 [µM]	TGI [µM]
CS(=O)(=O)Nc1cc(-c2ccc3ncnc(Nc4cccc(Cl)c4)c3c2)cnc1Cl	0.416	3.59
CN(C)c1ccc(C(O)C2=CC(=O)c3ccccc3C2=O)cc1 (stereo not drawn)	5.37	92.9
Clc1ccc(CN2CCCN(Cc3ccc(Cl)cc3)C2c2cc3ccccc3c3ccccc23)cc1		> 100
COc1cc(N(C)C)c(OC)cc1C=C1C=CC=C1		> 100
C[C@H]1CC[P+](C)(c2ccccc2)C1 (stereo partly drawn)		> 100
C=C1CC[C@H]2C(C)=CC[C@H]3C(=C)C(=O)O[C@@H]3[C@@H]12		> 100
COc1cc(OC)c2c(=O)c3cccc([N+](=O)[O-])c3n(C)c2c1		> 100
COc1ccc(-c2csc(Nc3cccc(-c4csc(C)n4)c3)n2)cc1	3.63	> 50
COc1cc(/C=C2\SC(N3CCCCC3)=NC2=O)ccc1OCCCCCCOc1ccc(/C=C2\SC(N3CCCCC3)=NC2=O)cc1OC	12	76.6
Cc1cc(C)nc(NS(=O)(=O)c2ccc(Nc3c4ccccc4nc4c(C(=O)NCCN(C)C)cccc34)cc2)n1		23.6
CCOC1Oc2ccc(C)cc2C(=O)/C1=C\Nc1ccc(S(N)(=O)=O)cc1 (stereo not drawn)	9.43	31.4
Cc1cc(NN=C(c2ccc(O)cc2)c2ccc(O)cc2)c([N+](=O)[O-])cc1[N+](=O)[O-]	4.54	26.6
COc1ccc(-c2c(N)noc2-c2cc(OC)c3c(c2)OCCO3)cc1	0.046	> 100
CCOC(=O)c1c(NC(=O)c2ccc(Cl)cc2)sc2c(CN(C)C)c(O)ccc12	10.1	31.8
CCCCC1(C(NC(=O)c2ccccc2Cl)c2ccncc2)C(=O)N(c2ccccc2)N(c2ccccc2)C1=O (stereo not drawn)		> 100
C#C[C@]1(O)CC[C@H]2[C@@H]3CC=C4c5nc(N)sc5CC[C@]4(C)[C@H]3CC[C@@]21C	5.47	50.9
C1=CC2CCC1CN2CCC1CNc2ccccc21 (stereo not drawn)		> 100
O=CN1N=C(c2cccc(Nc3ccnc4cc(Cl)ccc34)c2)CC1c1ccc(Cl)cc1 (stereo not drawn)	> 100	> 100
O=C1C(=O)C2(CC1S(=O)(=O)c1ccccc1)c1ccccc1-c1ccccc12 (stereo not drawn)		72.8
Cc1cc(Cl)ccc1NC(=O)C1C(=O)N(c2ccc(Cl)cc2C)C(=O)/C1=N\NC(N)=S (stereo not drawn)		51.8
COc1cc(-c2nn(-c3cccc(NC(=O)CCNc4ccc(N5CCOCC5)cc4)c3)cc2-c2ccncc2)ccc1Cl	3.07	> 100
Cc1ccc2ccc(-c3ccccc3)c3c2c1C(=O)c1ccccc1C3=O		> 100
OCC(O)C(O)C(O)c1nn(-c2ccc(F)cc2)c2nc3cc(Cl)c(Cl)cc3nc12 (stereo not drawn)		49.2
CCCCCC[C@H]1C(=O)O[C@H](C)[C@H](NC(=O)c2cccc(NC=O)c2OC)C(=O)O[C@@H](C)[C@@H]1OC(=O)CCC (tested in a mixture with another compound)	6	24.2
COc1ccc(C2Cc3cc(OC)c(OC)c(OC)c3C2)cc1 (stereo not drawn)		> 100

tested on: SW-620 colon; test: NCI tumour cell line growth inhibition, 48 h

Compound	GI50 [µM]	TGI [µM]
CS(=O)(=O)Nc1cc(-c2ccc3ncnc(Nc4cccc(Cl)c4)c3c2)cnc1Cl	0.48	4.87
Clc1ccc(CN2CCCN(Cc3ccc(Cl)cc3)C2c2cc3ccccc3c3ccccc23)cc1		> 100
COc1ccc2c(c1OC)O/C(=C\c1ncc([N+](=O)[O-])n1C)C2=O	0.385	
COc1cc(N(C)C)c(OC)cc1C=C1C=CC=C1		> 100
C[C@H]1CC[P+](C)(c2ccccc2)C1 (stereo partly drawn)		> 100
C=C1CC[C@H]2C(C)=CC[C@H]3C(=C)C(=O)O[C@@H]3[C@@H]12		> 100
COc1cc(OC)c2c(=O)c3cccc([N+](=O)[O-])c3n(C)c2c1		> 100
COc1ccc(-c2csc(Nc3cccc(-c4csc(C)n4)c3)n2)cc1	0.441	> 50
COc1cc(/C=C2\SC(N3CCCCC3)=NC2=O)ccc1OCCCCCCOc1ccc(/C=C2\SC(N3CCCCC3)=NC2=O)cc1OC	14.9	48.3
Cc1cc(C)nc(NS(=O)(=O)c2ccc(Nc3c4ccccc4nc4c(C(=O)NCCN(C)C)cccc34)cc2)n1		15.2
CCOC1Oc2ccc(C)cc2C(=O)/C1=C\Nc1ccc(S(N)(=O)=O)cc1 (stereo not drawn)	15.3	> 50
Cc1cc(NN=C(c2ccc(O)cc2)c2ccc(O)cc2)c([N+](=O)[O-])cc1[N+](=O)[O-]	8.83	45.6
COc1ccc(-c2c(N)noc2-c2cc(OC)c3c(c2)OCCO3)cc1	< 0.01	> 100
COc1ccc(-c2cc(/C=C/C(=O)c3ccc(N)cc3)[nH]n2)cc1	1.69	5.41
CCOC(=O)c1c(NC(=O)c2ccc(Cl)cc2)sc2c(CN(C)C)c(O)ccc12	2.4	7.33
CCCCC1(C(NC(=O)c2ccccc2Cl)c2ccncc2)C(=O)N(c2ccccc2)N(c2ccccc2)C1=O (stereo not drawn)		> 100
N#Cc1cc(S(=O)(=O)Nc2nc3cc(Cl)ccc3o2)c(SCc2ccccc2)cc1Cl	11.7	23.9

— PubChem BioAssay (NCI)
